In the NIST ThermoML archive (doi:10.1021/acs.jced.7b00002):

Assay: xn = mol fraction of the nth substance listed
Details: 97.6 kPa, Liquid; for viscosity: Capillary tube (Ostwald / Ubbelohde) method; for mass density: Vibrating tube method

CCCCCCCC[n+]1ccn(C)c1.[Cl-] [1-methyl-3-octylimidazolium chloride] + C[S+](C)[O-]
Details | mass density [kg/m3] | viscosity [mPa·s]
303.15 K, x1 = 0.13 | 1067.88 | 6.85
303.15 K, x1 = 0.253 | 1051.57 | 24.14
303.15 K, x1 = 0.338 | 1042.77 | 55.12
303.15 K, x1 = 0.439 | 1034.29 | 143.43
303.15 K, x1 = 0.574 | 1025.26 | 371.36
303.15 K, x1 = 0.75 | 1015.41 | 1084.7
303.15 K, x1 = 0.862 | 1011.18 | 3235.6
303.15 K, x1 = 1 | 1006.2 | 7339.7
308.15 K, x1 = 0.13 | 1063.71 | 6
308.15 K, x1 = 0.253 | 1047.84 | 19.97
308.15 K, x1 = 0.338 | 1039.2 | 43.8
308.15 K, x1 = 0.439 | 1030.91 | 107.7
308.15 K, x1 = 0.574 | 1022.09 | 264.22
308.15 K, x1 = 0.75 | 1012.38 | 742.47
308.15 K, x1 = 0.862 | 1008.24 | 2150.9
308.15 K, x1 = 1 | 1003.33 | 4272.9
313.15 K, x1 = 0.13 | 1059.55 | 5.24
313.15 K, x1 = 0.253 | 1044.09 | 16.54
313.15 K, x1 = 0.338 | 1035.65 | 34.98
313.15 K, x1 = 0.439 | 1027.54 | 82.42
313.15 K, x1 = 0.574 | 1018.92 | 192.92
313.15 K, x1 = 0.75 | 1009.41 | 508.33
313.15 K, x1 = 0.862 | 1005.31 | 1404.4
313.15 K, x1 = 1 | 1000.48 | 2766.9
318.15 K, x1 = 0.13 | 1055.41 | 4.62
318.15 K, x1 = 0.253 | 1040.39 | 13.89
318.15 K, x1 = 0.338 | 1032.11 | 28.15
318.15 K, x1 = 0.439 | 1024.18 | 63.95
318.15 K, x1 = 0.574 | 1015.75 | 143.95
318.15 K, x1 = 0.75 | 1006.46 | 363.38
318.15 K, x1 = 0.862 | 1002.4 | 943.52
318.15 K, x1 = 1 | 997.64 | 1788.6
323.15 K, x1 = 0.13 | 1051.26 | 4.1
323.15 K, x1 = 0.253 | 1036.65 | 11.8
323.15 K, x1 = 0.338 | 1028.58 | 23.25
323.15 K, x1 = 0.439 | 1020.83 | 50.83
323.15 K, x1 = 0.574 | 1012.58 | 109.49
323.15 K, x1 = 0.75 | 1003.51 | 264.93
323.15 K, x1 = 0.862 | 999.47 | 653.9
323.15 K, x1 = 1 | 994.82 | 1198.7
328.15 K, x1 = 0.13 | 1047.12 | 3.67
328.15 K, x1 = 0.253 | 1032.95 | 10.12
328.15 K, x1 = 0.338 | 1025.06 | 19.36
328.15 K, x1 = 0.439 | 1017.51 | 41.01
328.15 K, x1 = 0.574 | 1009.43 | 84.97
328.15 K, x1 = 0.75 | 1000.56 | 197.17
328.15 K, x1 = 0.862 | 996.58 | 466.77
328.15 K, x1 = 1 | 992 | 828.3
333.15 K, x1 = 0.13 | 1042.98 | 3.31
333.15 K, x1 = 0.253 | 1029.24 | 8.78
333.15 K, x1 = 0.338 | 1021.55 | 16.31
333.15 K, x1 = 0.439 | 1014.19 | 33.28
333.15 K, x1 = 0.574 | 1006.28 | 67.04
333.15 K, x1 = 0.75 | 997.59 | 149.71
333.15 K, x1 = 0.862 | 993.72 | 338.65
333.15 K, x1 = 1 | 989.17 | 588.69
338.15 K, x1 = 0.13 | 1038.85 | 3
338.15 K, x1 = 0.253 | 1025.55 | 7.66
338.15 K, x1 = 0.338 | 1018.05 | 13.91
338.15 K, x1 = 0.439 | 1010.88 | 27.38
338.15 K, x1 = 0.574 | 1003.15 | 53.77
338.15 K, x1 = 0.75 | 994.64 | 115.48
338.15 K, x1 = 0.862 | 990.88 | 250.15
338.15 K, x1 = 1 | 986.38 | 426.28
343.15 K, x1 = 0.13 | 1034.72 | 2.72
343.15 K, x1 = 0.253 | 1021.86 | 6.75
343.15 K, x1 = 0.338 | 1014.56 | 11.95
343.15 K, x1 = 0.439 | 1007.59 | 22.97
343.15 K, x1 = 0.574 | 1000.03 | 43.6
343.15 K, x1 = 0.75 | 991.75 | 90.8
343.15 K, x1 = 0.862 | 988.04 | 189.55
343.15 K, x1 = 1 | 983.63 | 316.66
348.15 K, x1 = 0.13 | 1030.6 | 2.5
348.15 K, x1 = 0.253 | 1018.18 | 5.98
348.15 K, x1 = 0.338 | 1011.07 | 10.37
348.15 K, x1 = 0.439 | 1004.31 | 19.28
348.15 K, x1 = 0.574 | 996.93 | 35.76
348.15 K, x1 = 0.75 | 988.9 | 72.27
348.15 K, x1 = 0.862 | 985.2 | 145.53
348.15 K, x1 = 1 | 980.88 | 237.14
353.15 K, x1 = 0.13 | 1026.47 | 2.29
353.15 K, x1 = 0.253 | 1014.51 | 5.34
353.15 K, x1 = 0.338 | 1007.6 | 9.06
353.15 K, x1 = 0.439 | 1001.04 | 16.49
353.15 K, x1 = 0.574 | 993.83 | 29.9
353.15 K, x1 = 0.75 | 985.96 | 58.87
353.15 K, x1 = 0.862 | 982.37 | 113.93
353.15 K, x1 = 1 | 978.13 | 181.41

CCCCCCCC[n+]1ccn(C)c1.[Cl-] [1-methyl-3-octylimidazolium chloride] + c1ccncc1
Details | mass density [kg/m3] | viscosity [mPa·s]
303.15 K, x1 = 0.128 | 988.9 | 3.46
303.15 K, x1 = 0.255 | 998.25 | 12.71
303.15 K, x1 = 0.339 | 1000.33 | 29.41
303.15 K, x1 = 0.445 | 1002.78 | 84.05
303.15 K, x1 = 0.578 | 1004.43 | 290.77
303.15 K, x1 = 0.755 | 1005.83 | 863.91
303.15 K, x1 = 0.865 | 1005.51 | 2828.1
303.15 K, x1 = 1 | 1006.2 | 7339.7
308.15 K, x1 = 0.128 | 984.71 | 3.11
308.15 K, x1 = 0.255 | 994.55 | 10.87
308.15 K, x1 = 0.339 | 996.84 | 24.13
308.15 K, x1 = 0.445 | 999.45 | 65.58
308.15 K, x1 = 0.578 | 1001.29 | 215.57
308.15 K, x1 = 0.755 | 1002.79 | 599.38
308.15 K, x1 = 0.865 | 1002.58 | 1823.5
308.15 K, x1 = 1 | 1003.33 | 4272.9
313.15 K, x1 = 0.128 | 980.51 | 2.81
313.15 K, x1 = 0.255 | 990.84 | 9.39
313.15 K, x1 = 0.339 | 993.34 | 20.12
313.15 K, x1 = 0.445 | 996.14 | 51.96
313.15 K, x1 = 0.578 | 998.15 | 161.31
313.15 K, x1 = 0.755 | 999.79 | 426
313.15 K, x1 = 0.865 | 999.66 | 1210.7
313.15 K, x1 = 1 | 1000.48 | 2766.9
318.15 K, x1 = 0.128 | 976.31 | 2.56
318.15 K, x1 = 0.255 | 987.14 | 8.17
318.15 K, x1 = 0.339 | 989.85 | 16.97
318.15 K, x1 = 0.445 | 992.85 | 42.02
318.15 K, x1 = 0.578 | 995.01 | 123.18
318.15 K, x1 = 0.755 | 996.82 | 309.61
318.15 K, x1 = 0.865 | 996.75 | 829.67
318.15 K, x1 = 1 | 997.64 | 1788.6
323.15 K, x1 = 0.128 | 972.1 | 2.34
323.15 K, x1 = 0.255 | 983.45 | 7.17
323.15 K, x1 = 0.339 | 986.38 | 14.49
323.15 K, x1 = 0.445 | 989.57 | 34.4
323.15 K, x1 = 0.578 | 991.88 | 96.06
323.15 K, x1 = 0.755 | 993.86 | 230.68
323.15 K, x1 = 0.865 | 993.8 | 583.82
323.15 K, x1 = 1 | 994.82 | 1198.7
328.15 K, x1 = 0.128 | 967.86 | 2.15
328.15 K, x1 = 0.255 | 979.75 | 6.34
328.15 K, x1 = 0.339 | 982.9 | 12.56
328.15 K, x1 = 0.445 | 986.28 | 28.53
328.15 K, x1 = 0.578 | 988.75 | 75.98
328.15 K, x1 = 0.755 | 990.9 | 174.4
328.15 K, x1 = 0.865 | 990.92 | 419.77
328.15 K, x1 = 1 | 992 | 828.3
333.15 K, x1 = 0.128 | 963.58 | 1.98
333.15 K, x1 = 0.255 | 976.06 | 5.65
333.15 K, x1 = 0.339 | 979.42 | 10.81
333.15 K, x1 = 0.445 | 983 | 23.98
333.15 K, x1 = 0.578 | 985.64 | 61.06
333.15 K, x1 = 0.755 | 987.95 | 134.84
333.15 K, x1 = 0.865 | 988.06 | 309.69
333.15 K, x1 = 1 | 989.17 | 588.69
338.15 K, x1 = 0.128 | 959.29 | 1.83
338.15 K, x1 = 0.255 | 972.37 | 5.06
338.15 K, x1 = 0.339 | 975.93 | 9.51
338.15 K, x1 = 0.445 | 979.67 | 20.37
338.15 K, x1 = 0.578 | 982.53 | 49.81
338.15 K, x1 = 0.755 | 984.99 | –
338.15 K, x1 = 0.865 | 985.22 | 233.02
338.15 K, x1 = 1 | 986.38 | 426.28
343.15 K, x1 = 0.128 | 955.03 | 1.7
343.15 K, x1 = 0.255 | 968.68 | 4.56
343.15 K, x1 = 0.339 | 972.4 | 8.37
343.15 K, x1 = 0.445 | 976.42 | 17.42
343.15 K, x1 = 0.578 | 979.44 | 41.06
343.15 K, x1 = 0.755 | 982.04 | 84.08
343.15 K, x1 = 0.865 | 982.37 | 177.92
343.15 K, x1 = 1 | 983.63 | 316.66
348.15 K, x1 = 0.128 | 950.66 | 1.58
348.15 K, x1 = 0.255 | 965 | 4.13
348.15 K, x1 = 0.339 | 968.9 | 7.4
348.15 K, x1 = 0.445 | 973.05 | 15.01
348.15 K, x1 = 0.578 | 976.36 | 34.18
348.15 K, x1 = 0.755 | 979.11 | 68.04
348.15 K, x1 = 0.865 | 979.56 | 138.26
348.15 K, x1 = 1 | 980.88 | 237.14
353.15 K, x1 = 0.128 | 946.27 | 1.48
353.15 K, x1 = 0.255 | 961.31 | 3.76
353.15 K, x1 = 0.339 | 965.27 | 6.63
353.15 K, x1 = 0.445 | 969.48 | 13.03
353.15 K, x1 = 0.578 | 973.29 | 28.74
353.15 K, x1 = 0.755 | 976.18 | 55.2
353.15 K, x1 = 0.865 | 976.69 | 108.95
353.15 K, x1 = 1 | 978.13 | 181.41
